How the values were obtained:
[1] = in vivo
Description: All animals were weighed with a digital platform scale (DUE600ST/M3s-A, Mettler Toledo Ltd.) on the day of operation, 5 days post-operation, and the day of autopsy.
Food consumption was checked every day. Any remaining amount of food was weighed with a digital platform scale (DUE600ST/ID3s-A, Mettler Toledo Ltd.) when present. If there was no uneaten diet, food consumption was recorded as 500 g.

[2] = Blood biochemical examination; format: in vivo, miniature swine (Gottingen)
Description: Blood for biochemical examination was centrifuged at 3,000 rpm at 4° C. for 15 min to obtain serum samples used to measure AST, ALT, ALP, total protein (TP), albumin (Alb), protein fraction (alb), alpha 1 globulin (α1-glb), alpha 2 globulin (α-glb), beta globulin (β-glb), gamma globulin (γ-glb), albumin/globulin ratio (A/G), total bilirubin (T-Bil), urea nitrogen (UN), creatinine (CRE), glucose (Glu), total cholesterol (T-Cho), triglycerides (TG), sodium, potassium, chloride, calcium, inorganic phosphate (IP), and C-reactive protein (CRP).

[3] = design: species or system miniature swine (Gottingen); settings: in vivo
Description: Blood for hematological examination was collected by catheter on the day of operation, 3 days after operation, and 7 days after operation, and the day of necropsy. Blood was collected into EDTA-2K coated blood collection tubes (VP-DK052K05, TERUMO Ltd.). Red blood cell count (RBC), white blood cell count (WBC), hemoglobin concentration (HGB), hematocrit (HCT), and platelet count (PLT) were measured using a multi-channel blood cell counter (Sysmex K-4500, Sysmex

In the case of `CC(=O)N[C@@H](CCCNC(=N)N)C(=O)N[C@@H](C)C(=O)N[C@@H](CC(=O)O)C(=O)N[C@@H](C)C(=O)N[C@@H](CCCNC(=N)N)C(=O)N[C@@H](C)C(=O)N[C@@H](CC(=O)O)C(=O)N[C@@H](C)C(=O)N[C@@H](CCCNC(=N)N)C(=O)N[C@@H](C)C(=O)N[C@@H](CC(=O)O)C(=O)N[C@@H](C)C(=O)N[C@@H](CCCNC(=N)N)C(=O)N[C@@H](C)C(=O)N[C@@H](CC(=O)O)C(=O)N[C@@H](C)C(N)=O` [RADA16, Ac-(RADA)4-CONH2], the “body weight and food intake” value [1] is reported as “generally maintained”, the general condition [1] is reported as “good general condition” and the CRE ([2]; AD3: 3 days after treatment, per animal and Mean (n=3)) is reported as 1.12 mg/dL. For the same compound, the “CRP change” value ([2]; in vivo) was “elevated level of CRP” and the “WBC change” value [3] was “elevated level of WBC”.

— patent US20140329914A1, “Amphiphilic Peptides for Thoracic Air Leakage Occlusion” (3-D Matrix Ltd., priority 2011, published 2014)
